From patent publication US20180252704A1, “SCREENING ASSAY TO IDENTIFY IDO1 AND/OR TDO MODULATORS” (Hoffmann-La Roche Inc., priority 2015, published 2018)

Biological target: T1, human TDO (Homo sapiens, UniProt P48775)
T1 construct: expressed in transfected cells; pTet-On plus pTRE2hyg-TDO2
Experiment: cell based fluorescence assay of TDO activity in HepG2-Tet-on-TDO *25 cells (kynurenine detected with Sensor 1), compared with the prior art biochemical TDO assay
Settings: IC50 cell-based assay versus biochemical assay
Protocol: Assay Methods: Cells were seeded 10,000 cells/well in the Cell Plate and incubated at 37° C. and 5% CO2 in the 95% humidified cell culture incubator. Cells were then induced with 1 μg/ml of doxycyline for 24 h to achieve full expression of IDO or TDO. Non-induced cells were used as 100% inhibition control. After washing 3 times with 60 μl of 1× HBSS (37° C.), cells were equilibrated with 60 μl of 1× HBSS in the cell culture incubator for 30 min. After an-other 3 times washing with 60 μl of 1× HBSS (37° C.), cells were treated with compounds for 10 min before adding the substrate, L-tryptophan, to a final concentration of 80 μM. The assay was carried out for 4 h at 37° C. and 5% CO2 in the cell culture incubator. The reaction was then stopped by transfer of 30 μl/well of supernatant into the Assay Plate. 10 μl/well of 30% (w/v) TCA were added and followed by application of Sensor 1 to a final concentration of 10 μM. After brief centrifugation, the fluorescence was measured at Ex: 546, Em: 586nm with a Paradigm (Molecular devices) plate reader. [table]

T1 sequence (P48775 whole entry): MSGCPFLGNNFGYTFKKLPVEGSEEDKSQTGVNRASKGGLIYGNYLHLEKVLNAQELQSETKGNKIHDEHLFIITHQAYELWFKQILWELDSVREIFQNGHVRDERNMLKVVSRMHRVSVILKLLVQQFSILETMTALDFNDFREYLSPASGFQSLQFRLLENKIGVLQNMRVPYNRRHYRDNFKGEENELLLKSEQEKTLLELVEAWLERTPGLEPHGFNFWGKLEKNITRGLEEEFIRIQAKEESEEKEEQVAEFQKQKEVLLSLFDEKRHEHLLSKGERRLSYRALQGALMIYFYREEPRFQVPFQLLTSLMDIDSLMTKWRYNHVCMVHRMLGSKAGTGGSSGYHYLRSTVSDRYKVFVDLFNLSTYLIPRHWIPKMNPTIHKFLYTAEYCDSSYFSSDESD

right-shift of IC50 from biochemical assay to cell-based assay in TDO enzyme activity: Over 100 fold
Structure (SMILES): NS(=O)(=O)NCCNc1nonc1/C(=N/O)Nc1ccc(F)c(Br)c1 [INCB024360, (Z)-N-(3-bromo-4-fluorophenyl)-N′-hydroxy-4-(2-(sulfamoylamino)ethylamino)-1,2,5-oxadiazole-3-carboximidamide]
